The compounds below were run against T1, PAK4 Kinase domain (PAK4 KD) (Homo sapiens, UniProt O96013) (assay: PAK4 kinase domain enzymatic assay (PK/LDH-coupled, Ki)). Conditions: PAK4 Kinase Domain.
T1 construct: Cloning, expression, and purification of recombinant PAK4 Kinase domain (PAK4 KD); His tag (pET28a(+)/pET24a(+), Ni-NTA purification) (N, cleaved yes); GST (pGST4.5, glutathione column) (N, cleaved yes); made in house; host or cells: E. coli BL21(DE3)
T1 sequence (O96013 321-572 limits assumed): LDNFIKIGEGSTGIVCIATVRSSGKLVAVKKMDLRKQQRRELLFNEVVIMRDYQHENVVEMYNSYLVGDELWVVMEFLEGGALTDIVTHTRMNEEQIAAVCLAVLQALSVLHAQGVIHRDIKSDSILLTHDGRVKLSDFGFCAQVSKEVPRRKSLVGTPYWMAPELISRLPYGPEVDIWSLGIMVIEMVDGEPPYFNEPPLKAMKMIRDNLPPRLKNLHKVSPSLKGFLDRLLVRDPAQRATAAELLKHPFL
Assay type: biochemical
`COc1ccc(C(=O)Nc2n[nH]c3c2CN(C(=O)N[C@@H]2C[C@H]2c2ccccc2)C3(C)C)cc1OC` (relative stereo) [Example 109, 3-[(3,4-dimethoxybenzoyl)amino]-6,6-dimethyl-N-[trans-2-phenyl-cyclopropyl]-4,6-dihydropyrrolo[3,4-c]pyrazole-5(1H)-carboxamide] gave a Ki of 176 nM. Compound `COC[C@@H](NC(=O)N1Cc2c(NC(=O)c3ccccc3)n[nH]c2C1(C)C)c1ccccc1` [Example 120, (S)-3-benzamido-N-(2-methoxy-1-phenylethyl)-6,6-dimethylpyrrolo[3,4-c]pyrazole-5(1H,4H,6H)-carboxamide] has a Ki of 463 nM. Compound `CCC(C(=O)Nc1n[nH]c2c1CN(C(=O)N[C@@H]1C[C@H]1c1ccccc1)C2(C)C)c1ccccc1` (relative stereo) [Example 107, 6,6-dimethyl-3-[(2-phenylbutanoyl)amino]-N-[trans-2-phenylcyclopropyl]-4,6-dihydropyrrolo[3,4-c]pyrazole-5(1H)-carboxamide] has a Ki of 260 nM. Compound `CC(C)[C@@H](CN(C)C)OC(=O)N1Cc2c(NC(=O)c3ccccc3)n[nH]c2C1(C)C` [Example 74, (1S)-1-[(dimethylamino)methyl]-2-methylpropyl 3-(benzoylamino)-6,6-dimethyl-4,6-dihydropyrrolo[3,4-c]pyrazole-5(1H)-carboxylate] has a Ki of 475 nM. Work on `CC1(C)c2[nH]nc(NC(=O)c3ccccc3)c2CN1C(=O)NC1CCCN(Cc2ccccc2)C1` (stereo not drawn) [Example 61, 3-(benzoylamino)-N-(1-benzylpiperidin-3-yl)-6,6-dimethyl-4,6-dihydropyrrolo[3,4-c]pyrazole-5(1H)-carboxamide] yielded a Ki of 444 nM. `COc1cc(C(=O)Nc2n[nH]c3c2CN(C(=O)N[C@H](CN(C)C)c2ccccc2)C3(C)C)nc(OC)n1` [Example 106, (S)-3-(2,4-dimethoxypyrimidine-6-carboxamido)-N-(2-(dimethylamino)-1-phenylethyl)-6,6-dimethylpyrrolo[3,4-c]pyrazole-5(1H,4H,6H)-carboxamide] was tested, and the Ki was 412 nM. `CN(C)CC(CC(=O)N1Cc2c(NC(=O)c3ccccc3)n[nH]c2C1(C)C)c1ccc(Cl)cc1` (stereo not drawn) [Example 67, N-{5-[3-(4-chlorophenyl)-4-(dimethylamino)butanoyl]-6,6-dimethyl-1,4,5,6-tetrahydropyrrolo[3,4-c]pyrazol-3-yl}benzamide] showed a Ki of 193 nM. Compound `CC1(C)c2[nH]nc(NC(=O)c3ccccc3)c2CN1C(=O)N[C@H](CN)c1ccccc1` [Example 64, N-[(1S)-2-amino-1-phenylethyl]-3-(benzoylamino)-6,6-dimethyl-4,6-dihydropyrrolo[3,4-c]pyrazole-5(1H)-carboxamide] has a Ki of 19.3 nM. `CC1(C)c2[nH]nc(NC(=O)c3ccccc3)c2CN1C(=O)NC1CCN(Cc2ccccc2)C1` (stereo not drawn) [Example 59, 3-(benzoylamino)-N-(1-benzylpyrrolidin-3-yl)-6,6-dimethyl-4,6-dihydropyrrolo[3,4-c]pyrazole-5(1H)-carboxamide] showed a Ki of 448 nM. Work on `COc1ccc(CC(=O)Nc2n[nH]c3c2CN(C(=O)N[C@@H]2C[C@H]2c2ccccc2)C3(C)C)cc1` (relative stereo) [Example 101, 3-{[(4-methoxyphenyl)acetyl]amino}-6,6-dimethyl-N-[trans-2-phenylcyclopropyl]-4,6-dihydropyrrolo[3,4-c]pyrazole-5(1H)-carboxamide] yielded a Ki of 113 nM. `CC1(C)c2[nH]nc(NC(=O)c3ccccc3)c2CN1C(=O)NC(CN1CCCC1)c1ccccc1` (stereo not drawn) [Example 60, 3-(benzoylamino)-6,6-dimethyl-N-(1-phenyl-2-pyrrolidin-1-ylethyl)-4,6-dihydropyrrolo[3,4-c]pyrazole-5(1H)-carboxamide] gave a Ki of 267 nM. In the case of `CCC(NC(=O)N1Cc2c(NC(=O)c3ccccc3)n[nH]c2C1(C)C)c1ccccc1` (stereo not drawn) [Example 62, 3-(benzoylamino)-6,6-dimethyl-N-(1-phenylpropyl)-4,6-dihydropyrrolo[3,4-c]pyrazole-5(1H)-carboxamide], the Ki is reported as 308 nM.
